Entries after “also recorded” stand apart in the source; their conditions may differ. Like-named read-outs stand apart in the source and are kept apart here.
How the values were obtained:
[1] = cited from earlier work; for mean Cmax: twice daily oral dosing with 75 mg oseltamivir capsule; for mean Cmax / AUC0-12: ref Oseltamivir package insert; for AUC0-12: values reported earlier, 75 mg oseltamivir twice daily
cytochrome P450 isoforms = tested on: cytochrome P450 isoforms; design: method as in Tamiflu package insert; conditions: ref Tamiflu package insert; cited from earlier work
[2] = tested on: recombinant amantadine sensitive A/Vietnam/1203/04 (H5N1) virus; conditions: mice, lethal challenge, equivalent human therapeutic doses, ref Ilyushina, in press; cited from earlier work
[3] = tested on: all strains of influenza A and B tested, including H5N1; conditions: no reference given; cited from earlier work
[4] = Safety and tolerability (adverse events) in the crossover study; conditions: eight adverse events in total during the trial; 17 subjects
[5] = Steady-state plasma pharmacokinetics, open-label randomized three-way crossover study, drugs alone or in combination; conditions: for Tmax / half-life / AUC(0-t) / Cmax: human, in vivo; for effect of amantadine coadministration on PK (in words): oseltamivir 75 mg BID + amantadine 100 mg BID
[6] = design: method as in Symmetrel package insert; conditions: ref Symmetrel package insert, cited from earlier work
[7] = oseltamivir, combination therapy with amantadine 100 mg BID
[8] = oseltamivir, oseltamivir monotherapy 75 mg BID
[9] = under fasted conditions, ref Tamiflu package insert
[10] = under fed conditions, ref Tamiflu package insert
[11] = oseltamivir carboxylate, combination therapy with amantadine 100 mg BID
[12] = oseltamivir carboxylate, oseltamivir monotherapy 75 mg BID

CCOC(=O)C1=C[C@@H](OC(CC)CC)[C@H](NC(C)=O)[C@@H](N)C1 [Oseltamivir, oseltamivir, reference compound]
exposure to oseltamivir as share of the total exposure ([1]; after oral dosing, ref Tamiflu package insert): less than 5%
share of absorbed oseltamivir eliminated by conversion to oseltamivir carboxylate ([1]; ref Tamiflu package insert): > 90%
mean Cmax [1]: 65.2 ng/mL
AUC0-12 [1]: 112 ng·h/mL
substrate for, or inhibitor of, cytochrome P450 isoforms (cytochrome P450 isoforms): Neither oseltamivir nor oseltamivir carboxylate is a substrate for, or inhibitor of, cytochrome P450 isoforms; also recorded: Neither oseltamivir nor oseltamivir carboxylate is a substrate for
animals protected from mortality [2]: 20%
effectiveness (in words) [3]: effective against all strains of influenza A and B tested, including H5N1
number of adverse events reported, all mild [4]: three
Tmax [5]: 0.85 h
half-life [5]: 1.83 h
AUC(0-t) ([5]; 75 mg): 161 ng·h/mL
Cmax ([5]; 75 mg): 60.2 ng/mL
Tmax ([5]; 75 mg): 0.76 h
half-life ([5]; 75 mg): 1.85 h
effect of amantadine coadministration on PK (in words) [5]: did not meaningfully affect
apparent clearance, geometric mean [5, 7]: 505 L/h
apparent distribution volume, geometric mean [5, 7]: 1329 L
apparent clearance, geometric mean [5, 8]: 465 L/h
apparent distribution volume, geometric mean [5, 8]: 1245 L

CC(=O)NC12CC3CC(CC(C3)C1)C2 [Acetylamantadine, acetylamantadine]
plasma acetylamantadine as share of the concurrent amantadine plasma concentration ([6]; 5 of 12 healthy volunteers, 200 mg dose of amantadine): up to 80%
N-acetylated metabolite in human urine, share of the administered dose [6]: 5-15%
detection of acetylamantadine in plasma ([6]; remaining seven of 12 volunteers): not detected
detection of acetylamantadine in plasma ([5]; current study, seventeen volunteers, LLOQ approximately 5.00 ng/mL): not detected

CCC(CC)O[C@@H]1C=C(C(=O)O)C[C@H](N)[C@H]1NC(C)=O [Oseltamivir carboxylate, oseltamivir carboxylate]
share of an oral dose reaching the systemic circulation as oseltamivir carboxylate ([1]; oral oseltamivir phosphate, ref Tamiflu package insert): At least 75%
mean Cmax [1]: 348 ng/mL
area under the plasma concentration time curve [1, 9]: 6218 ng·h/mL
peak plasma concentration [1, 9]: 551 ng/mL
area under the plasma concentration time curve [1, 10]: 6069 ng·h/mL
peak plasma concentration [1, 10]: 441 ng/mL
AUC0-12 [1]: 2719 ng·h/mL
substrate for, or inhibitor of, cytochrome P450 isoforms (cytochrome P450 isoforms): Neither oseltamivir nor oseltamivir carboxylate is a substrate for, or inhibitor of, cytochrome P450 isoforms; also recorded: Neither oseltamivir nor oseltamivir carboxylate is a substrate for
Tmax [5]: 3.07 h
half-life [5]: 6.15 h
AUC(0-t) ([5]; 75 mg): 3430 ng·h/mL
Cmax ([5]; 75 mg): 407 ng/mL
Tmax ([5]; 75 mg): 3.22 h
half-life ([5]; 75 mg): 6.09 h
effect of amantadine coadministration on PK (in words) [5]: did not meaningfully affect
apparent clearance, geometric mean [5, 11]: 22.3 L/h
apparent distribution volume, geometric mean [5, 11]: 197 L
apparent clearance, geometric mean [5, 12]: 21.9 L/h
apparent distribution volume, geometric mean [5, 12]: 192 L

— paper PMC2110886 (PLoS ONE, 2007)
